Reference: PubChem BioAssay (NCI)
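How tested: cells in 96-well plates exposed to compound for 48 hours at five concentrations. TGI denotes the concentration required for complete inhibition of growth.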

Tests used:
Test in all cases: growth of human tumour cells (NCI), 48 h
SR leukemia = system: SR leukemia
NCI-H522 lung = system: NCI-H522 lung
OVCAR-4 ovarian = system: OVCAR-4 ovarian
UO-31 renal = system: UO-31 renal
786-0 renal = system: 786-0 renal
OVCAR-8 ovarian = system: OVCAR-8 ovarian
OVCAR-3 ovarian = system: OVCAR-3 ovarian
NCI-H226 lung = system: NCI-H226 lung
SF-539 CNS = system: SF-539 CNS
T-47D breast = system: T-47D breast
M14 melanoma = system: M14 melanoma
TK-10 renal = system: TK-10 renal
MDA-N = system: MDA-N
K-562 leukemia = system: K-562 leukemia
U251 CNS = system: U251 CNS
SW-620 colon = system: SW-620 colon
MDA-MB-435 = system: MDA-MB-435

Measured: TGI

O=C(NC1CCN(Cc2ccccc2)CC1)c1ccc(I)cc1
> 100 µM: all assays above
